Data as given in PubChem BioAssay AID2060506 (Molecular Pharmacology Branch, DTP, NCI, 2025).
pIC50: −log10 of the molar value.

Test system: 598228-144-R-J1-PDC complex spheroid viability
Experiment: Anticancer human tumor 598228-144-R-J1-PDC patient-derived serous endometrial adenocarcinoma cell line growth inhibition [GQUAD]
Settings: for pIC50: curve of first compound; for viability, T/C: stronger effect = lower value
How it was run: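 Viability of tumor cells grown as complex spheroids with endothelial and stromal cells, exposed to drug combinations. Top concentration at or near clinical Cmax (else 10 microM), diluted in half-log increments.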

[1] = second compound 0.0316 µM, first compound 0.0316 µM
[2] = second compound 0.0316 µM, first compound 0.1 µM
[3] = second compound 0.0316 µM, first compound 0.316 µM
[4] = second compound 0.0316 µM, first compound 1 µM
[5] = second compound 0.0316 µM, first compound 3.16 µM
[6] = second compound 0.0316 µM, first compound 10 µM
[7] = second compound 0.1 µM, first compound 0.0316 µM
[8] = second compound 0.1 µM, first compound 0.1 µM
[9] = second compound 0.1 µM, first compound 0.316 µM
[10] = second compound 0.1 µM, first compound 1 µM
[11] = second compound 0.1 µM, first compound 3.16 µM
[12] = second compound 0.1 µM, first compound 10 µM
[13] = second compound 0.316 µM, first compound 0.0316 µM
[14] = second compound 0.316 µM, first compound 0.1 µM
[15] = second compound 0.316 µM, first compound 0.316 µM
[16] = second compound 0.316 µM, first compound 1 µM
[17] = second compound 0.316 µM, first compound 3.16 µM
[18] = second compound 0.316 µM, first compound 10 µM
[19] = second compound 1 µM, first compound 0.0316 µM
[20] = second compound 1 µM, first compound 0.1 µM
[21] = second compound 1 µM, first compound 0.316 µM
[22] = second compound 1 µM, first compound 1 µM
[23] = second compound 1 µM, first compound 3.16 µM
[24] = second compound 1 µM, first compound 10 µM
[25] = second compound 3.16 µM, first compound 0.0316 µM
[26] = second compound 3.16 µM, first compound 0.1 µM
[27] = second compound 3.16 µM, first compound 0.316 µM
[28] = second compound 3.16 µM, first compound 1 µM
[29] = second compound 3.16 µM, first compound 3.16 µM
[30] = second compound 3.16 µM, first compound 10 µM
[31] = second compound 10 µM, first compound 0.0316 µM
[32] = second compound 10 µM, first compound 0.1 µM
[33] = second compound 10 µM, first compound 0.316 µM
[34] = second compound 10 µM, first compound 1 µM
[35] = second compound 10 µM, first compound 3.16 µM
[36] = second compound 10 µM, first compound 10 µM
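Further: spheroids exposed to the agents for one week before reading.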
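Wherever viability, T/C is given: percent of vehicle DMSO control viability so 100% = untreated growth.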

C=CCn1c(=O)c2cnc(Nc3ccc(N4CCN(C)CC4)cc3)nc2n1-c1cccc(C(C)(C)O)n1 + Cc1cnc(CNC(=O)c2c(=O)c3ccc(N4CCCN(C)CC4)nc3n3c2sc2ccccc23)cn1
pIC50 (second compound 0.0316 µM): 5.00
pIC50 (second compound 0.1 µM): 6.35
pIC50 (second compound 0.316 µM): 5.91
pIC50 (second compound 1 µM): 6.18
pIC50 (second compound 3.16 µM): > 7.50
pIC50 (second compound 10 µM): > 7.50
viability, T/C [1]: 76%
viability, T/C [2]: 95%
viability, T/C [3]: 61.1%
viability, T/C [4]: 44.1%
viability, T/C [5]: 45.2%
viability, T/C [6]: 61.6%
viability, T/C [7]: 82.7%
viability, T/C [8]: 74.3%
viability, T/C [9]: 51.7%
viability, T/C [10]: 45.5%
viability, T/C [11]: 43.7%
viability, T/C [12]: 38%
viability, T/C [13]: 71.4%
viability, T/C [14]: 74.5%
viability, T/C [15]: 65.9%
viability, T/C [16]: 52.5%
viability, T/C [17]: 40.6%
viability, T/C [18]: 42.6%
viability, T/C [19]: 86.5%
viability, T/C [20]: 55.4%
viability, T/C [21]: 55.3%
viability, T/C [22]: 60.3%
viability, T/C [23]: 41.6%
viability, T/C [24]: 39.8%
viability, T/C [25]: 50.8%
viability, T/C [26]: 47.6%
viability, T/C [27]: 42.3%
viability, T/C [28]: 41%
viability, T/C [29]: 52.5%
viability, T/C [30]: 41.1%
viability, T/C [31]: 24.5%
viability, T/C [32]: 42.1%
viability, T/C [33]: 19.2%
viability, T/C [34]: 0.53%
viability, T/C [35]: 0.58%
viability, T/C [36]: 21.5%

CC(C)(O)C1CCC(Nc2ccc3ncc(-c4cccc(C(F)(F)F)c4)n3n2)CC1 (stereo unspecified) + Cc1cnc(CNC(=O)c2c(=O)c3ccc(N4CCCN(C)CC4)nc3n3c2sc2ccccc23)cn1
pIC50 (second compound 0.0316 µM): 5.86
pIC50 (second compound 0.1 µM): 6.05
pIC50 (second compound 0.316 µM): 5.92
pIC50 (second compound 1 µM): 5.90
pIC50 (second compound 3.16 µM): 6.40
pIC50 (second compound 10 µM): > 7.50
viability, T/C [1]: 76.5%
viability, T/C [2]: 93.7%
viability, T/C [3]: 73.2%
viability, T/C [4]: 62.9%
viability, T/C [5]: 16.7%
viability, T/C [6]: 17.8%
viability, T/C [7]: 73.7%
viability, T/C [8]: 69.2%
viability, T/C [9]: 70.2%
viability, T/C [10]: 46.4%
viability, T/C [11]: 22.9%
viability, T/C [12]: 10.9%
viability, T/C [13]: 77%
viability, T/C [14]: 53.6%
viability, T/C [15]: 74.7%
viability, T/C [16]: 56.1%
viability, T/C [17]: 17.7%
viability, T/C [18]: 17.6%
viability, T/C [19]: 64.2%
viability, T/C [20]: 45.9%
viability, T/C [21]: 58.2%
viability, T/C [22]: 65.8%
viability, T/C [23]: 13.6%
viability, T/C [24]: 18.3%
viability, T/C [25]: 51.2%
viability, T/C [26]: 56.8%
viability, T/C [27]: 55.2%
viability, T/C [28]: 32.6%
viability, T/C [29]: 0.22%
viability, T/C [30]: 0.19%
viability, T/C [31]: 25.4%
viability, T/C [32]: 0.49%
viability, T/C [33]: 33%
viability, T/C [34]: 0.33%
viability, T/C [35]: 0.26%
viability, T/C [36]: 5.96%

COc1ncnc(C2CC2)c1-c1ncc2cnn(Cc3ccc(-c4nc(C(F)(F)F)cn4C(C)C)cc3)c2n1 + Cc1cnc(CNC(=O)c2c(=O)c3ccc(N4CCCN(C)CC4)nc3n3c2sc2ccccc23)cn1
pIC50 (second compound 0.0316 µM): < 5.00
pIC50 (second compound 0.1 µM): < 5.00
pIC50 (second compound 0.316 µM): < 5.00
pIC50 (second compound 1 µM): < 5.00
pIC50 (second compound 3.16 µM): < 5.00
pIC50 (second compound 10 µM): > 7.50
viability, T/C [1]: 81%
viability, T/C [2]: 88.8%
viability, T/C [3]: 72.9%
viability, T/C [4]: 86.8%
viability, T/C [5]: 102%
viability, T/C [6]: 85.4%
viability, T/C [7]: 67.3%
viability, T/C [8]: 79.3%
viability, T/C [9]: 95.1%
viability, T/C [10]: 68.4%
viability, T/C [11]: 63.9%
viability, T/C [12]: 78.2%
viability, T/C [13]: 82.6%
viability, T/C [14]: 77.5%
viability, T/C [15]: 60.9%
viability, T/C [16]: 73.4%
viability, T/C [17]: 80.7%
viability, T/C [18]: 65.2%
viability, T/C [19]: 77.6%
viability, T/C [20]: 76.4%
viability, T/C [21]: 69.8%
viability, T/C [22]: 62.8%
viability, T/C [23]: 71.2%
viability, T/C [24]: 90%
viability, T/C [25]: 62.3%
viability, T/C [26]: 65.9%
viability, T/C [27]: 60.5%
viability, T/C [28]: 53.8%
viability, T/C [29]: 57.8%
viability, T/C [30]: 65.1%
viability, T/C [31]: 38.7%
viability, T/C [32]: 24.8%
viability, T/C [33]: 31.6%
viability, T/C [34]: 24.8%
viability, T/C [35]: 34.6%
viability, T/C [36]: 23.6%
